Data published in patent publication US20090186838A1, “Amphotericin Derivatives” (Eidgenössische Technische Hochschule Zürich, priority 2006, published 2009).
In brackets after ≈: the same amount, converted by molar mass. Read-outs that look alike come from different tables or passages of the source.

Columns and labels:
[1] = test system: DSY-562 C. glabrata CI; experiment: MIC determination in Candida strain DSY-562; format: cell-based; conditions: Nakaseomyces glabratus
Method: (§1) In Vitro Antifungal Activity. MIC values for various strains were determined in accordance with the standard protocol from the National Committee of Clinical Laboratory Standards but using YEPD liquid medium instead of RPMI-1640 medium (National Committee of Clinical Laboratory Standards (Reference Method for Broth Dilution Antifungal Susceptibility Testing of Yeast, M27-A2, Approved Standard-Second Edition, Volume 22, Number 15, 1995). AmB was used as a reference. The strains were cultivated overnight in 5 mL YEPD liquid medium at 30 to 37° C. (30° C. for the strain BY4741; 37° C. for the strain DSY1764) with constant shaking. The saturated cultures were diluted to an ODB600 of 0.1 (3×10P^7 cells/mL). Using 24 wells plate, each well was prepared by adding 1% (12 μL) of DMSO solution of the tested polyene macrolide with 1% (12 μL) yeast cells solution and completed with YEPD (1.176 mL). The plates were sealed with Parafilm and then incubated for 18 to 36 hours at 30 to 37° C. (18 hours at 30° C. for the strain BY4741; 36 hours at 37° C. for the strain DSY1764). The optical density was read at 600 nm using 1.5 mL cuvettes. The MIC value was defined as the drug concentration needed to inhibit growth, less than 5% compared to a drug-free culture.
(§2) MIC values of the polyene macrolides 3, 9 and 10 (Diamine-AmB and its ester and diamide derivative, respectively) in various Candida strains including an AmB-resistant strain C. albicans (DSY1764, with the genotype erg3AΔ::hisG/erg3BΔ::hisG erg11Δ::hisG/erg11Δ::hisG-URA3-hisG) were determined.

[2] = test system: DSY-565 C. glabrata CI; experiment: MIC determination in Candida strain DSY-565; format: cell-based; conditions: Nakaseomyces glabratus
Method: as §1, §2

[3] = test system: Saccharomyces cerevisiae wild type BY4741; experiment: MIC determination in Saccharomyces cerevisiae wild type BY4741; format: cell-based; conditions: for MIC: read-out: MIC; for times more active than AmB (MIC): relative to AmB
Method: as §1
MIC values of various polyene macrolides of the invention in Saccharomyces cerevisiae wild type BY4741, a derivative of S288C, (with AmB as a reference) were determined as described hereinabove.
Based on the remarkable performance observed with the Diamine-AmB conjugate similar modifications of the aminosugar moiety were made on other polyene macrolides, such as for example Nystatin (1b) and Pimaricin (1c). The antifungal activity of these nystatin and pimaricin conjugates bearing two aminopropyl side chains was measured using Saccharomyces cerevisiae wild type BY4741.

[4] = test system: DSY-296 C. albican CI; experiment: MIC determination in Candida strain DSY-296; format: cell-based, Candida albicans; conditions: Candida albicans
Method: as §1, §2

[5] = test system: human erythrocytes; experiment: Hemolytic assay (EH50); format: cell-based; conditions: concentration that led to 50% hemolysis of human erythrocytes; one hour at 37° C.
Method: Hemolytic Assay. The hemotoxicity of the polyene macrolide derivatives of the invention was determined by measuring the toxicity towards human erythrocytes (EH50 value) using an established assay (Kinsky, S. C. et al., Biochem. Biophys. Res. Comm. 1962, 9, 503). Human blood, anticoagulated with citrate or EDTA, was centrifuged (2000×g) at 4° C. for 10 minutes. The pellets were washed three times with PBS buffer (pH 7.2 with 2 g/L glucose) and then diluted to a concentration of 4% (4×10^8 cells/mL). All experiments were done in triplo and the total volume for the hemolysis tubes was 1.4 ml. The solutions were prepared by adding 1% (14 μL) of DMSO solution of the tested compound with […] of PBS buffer and completed with 750 μL of 4% erythrocytes. After one hour incubation at 37° C., the samples were centrifuged (1500×g) at 4° C. for 5 min and the absorbance of the supernatant was measured at 560 nm. The concentration that led to 50% hemolysis (EH50) was intrapolated graphically. The value for the 100% hemolysis was obtained by the treatment with 100 μM of AmB.
The toxicity of AmB (1a) and the polyene macrolides 3, 9 and 10 towards human erythrocytes was examined using the above described hemolysis assay (Table 3).

[6] = Solubility assay; format: physicochemical; conditions: for solubility: PBS buffer, pH 7.2, aqueous buffer, kinetic from dmso stock, read-out: Solubility in water
Method: Solubility assay. The solubility assay was performed according to Lipinski, C. A. et al Advances Drug Delivery Reviews 2001, 46, 3-26. Typically, a compound of the invention was dissolved in DMSO at a concentration of 10 μg/μl. The so obtained solution was added in […] at 1 min intervals to 2.5 ml PBS buffer solution pH 7.2. These additions correspond to solubility increments of 5 μg/ml to a top value of 65 μg/ml. A total of 14 additions were made and each time increased UV absorbance from light scattering was measured at 600 nm. The precipitation point was calculated from a bilinear curve fit to the Absorbance (y axis) versus μl of DMSO (x axis) plot.
The solubility of the polyene macrolides of the invention in water was tested following the above described protocol. Clearly, all conjugates were more soluble in water then AmB.

[7] = Saccharomyces cerevisiae wild type BY4741, YEPD liquid medium, 18 hours at 30° C.
[8] = Saccharomyces cerevisiae wild type BY4741
[9] = Saccharomyces cerevisiae, Table 3, strain not given, values as in Table 1 (S. cerevisiae BY4741)
[10] = DMSO stock added to PBS buffer solution pH 7.2, precipitation point by light scattering at 600 nm

**Q.** For `COC(=O)[C@H]1[C@@H]2C[C@@H](O[C@@H]3O[C@H](C)[C@@H](O)[C@H](N(CCCN)CCCN)[C@@H]3O)/C=C/C=C/C=C/C=C/C=C/C=C/C=C/[C@H](C)[C@@H](O)[C@@H](C)[C@H](C)OC(=O)C[C@H](O)C[C@H](O)CC[C@@H](O)[C@H](O)C[C@H](O)C[C@](O)(C[C@@H]1O)O2` [compound 9, N,N-Di-(3-aminopropyl)-AmB Methyl Ester], which MIC [1] is on record?
**A.** Its MIC is 0.25 µM (≈ 0.263 µg/mL).

**Q.** And the MIC [2]?
**A.** The MIC was 0.25 µM (≈ 0.263 µg/mL).

**Q.** And the MIC [3, 7]?
**A.** Its MIC is 0.1 µM (≈ 0.105 µg/mL).

**Q.** And the “times more active than AmB (MIC)” value [3, 8]?
**A.** The value was 3 times.

**Q.** What about the MIC [3, 9] of the same compound?
**A.** Its MIC is 0.1 µM (≈ 0.105 µg/mL).

**Q.** And the MIC [4]?
**A.** Its MIC is 0.1 µM (≈ 0.105 µg/mL).

**Q.** What about the EH50 [5] of the same compound?
**A.** The EH50 was 50 µM.

**Q.** What about the solubility [6, 10] of the same compound?
**A.** Its solubility is 22 µg/mL (≈ 20.9 µM).

**Q.** Which results are given for `C[C@@H]1[C@H](O)[C@@H](C)/C=C/C=C/C=C/C=C/C=C/C=C/C=C/[C@H](O[C@@H]2O[C@H](C)[C@@H](O)[C@H](N(CCCN)CCCN)[C@@H]2O)CC2O[C@](O)(C[C@@H](O)C[C@@H](O)[C@H](O)CC[C@@H](O)C[C@@H](O)CC(=O)O[C@H]1C)C[C@H](O)[C@H]2C(=O)NCCN` [compound 10, 16-(N′-(2-Aminoethyl)-carboxamide)-N,N-di-(3-aminopropyl)-AmB]?
**A.** MIC [1]: 0.5 µM (≈ 0.54 µg/mL); MIC [2]: 0.5 µM (≈ 0.54 µg/mL); MIC [3, 7]: 0.04 µM (≈ 0.0432 µg/mL); times more active than AmB (MIC) [3, 8]: 7.5 times; MIC [3, 9]: 0.04 µM (≈ 0.0432 µg/mL); MIC [4]: 0.75 µM (≈ 0.81 µg/mL); EH50 [5]: 30 µM; Solubility in water ([6]; DMSO stock added to PBS buffer solution pH 7.2, precipitation point by light scattering at 600 nm, listed as Diamine-Amide 10): 40 µg/mL (≈ 37 µM); solubility [6, 10]: ≤ 40 µg/mL; solubility in water compared with AmB ([6]; relative to AmB): four times more soluble
